Read-outs that look alike come from different tables or passages of the source.
Tests used:
ISF Aβ40 and Aβ42 = experiment: In vivo microdialysis of hippocampal ISF Aβ after γ-secretase inhibitor; design: species or system mouse; details: APP/PS1 and APP/PS1; nExt1CKO mice, 3-4 months; LY411575 5 mg/kg intraperitoneally; hippocampal microdialysis samples every 60 min for 6 hr; ELISA
[1] = human cerebrospinal fluid (CSF); endogenous Aβ; ref [8], [9]; cited from earlier work
[2] = mouse interstitial fluid (ISF); endogenous Aβ; ref [8], [9]; cited from earlier work
amyloid pathology = details: administration in a mouse model of AD; ref [65]; cited from earlier work

With C[C@H](NC(=O)[C@@H](O)c1cc(F)cc(F)c1)C(=O)N[C@@H]1C(=O)N(C)c2ccccc2-c2ccccc21 [γ-secretase inhibitor, LY411575] the “ISF Aβ40 and Aβ42 concentration after treatment” value (ISF Aβ40 and Aβ42) was “gradually decreased in a time-dependent manner”.

For amyloid-β [Aβ], the “half-life in the brain” value [1] is listed as ~ 8 hours and the “half-life in the brain” value [2] is listed as 1 to 2 h.

In the case of low-molecular-weight heparin, the “effect on amyloid pathology” value (amyloid pathology) is given as “reduced amyloid pathology”.
